Values of other authors as cited in patent US20070178051A1, “STERILIZED NANOPARTICULATE GLUCOCORTICOSTEROID FORMULATIONS” (Elan Pharma International, Ltd., priority 2006, published 2007).

Row | solubility in chloroform (chloroform) | solubility in ethanol (ethanol) | solubility in heptane (heptane) | solubility in water | SMILES
1 | freely soluble | sparingly soluble | practically insoluble | practically insoluble | CCCC1O[C@@H]2C[C@H]3C4CCC5=CC(=O)C=CC5(C)[C@H]4[C@@H](O)CC3(C)C2(C(=O)CO)O1 (mixture of isomers) [Budesonide, (RS)-11,16,17,21-Tetrahydroxy-pregna-1,4-diene-3,20-dione cyclic 16,17-acetal with butraldehyde]
2 |  |  |  | practically insoluble | CCC(=O)O[C@]1(C(=O)SCF)[C@H](C)C[C@H]2[C@@H]3C[C@H](F)C4=CC(=O)C=C[C@]4(C)[C@@]3(F)[C@@H](O)C[C@@]21C [Fluticasone propionate, S-(fluoromethyl) 6a,9-difluoro-11b, 17-dihydroxy-16a-methyl-3-oxoandrosta-1,4-diene-17b-carbothioate, 17-propionate]
